Source: patent US7390630B1, “Method of identifying a compound that selectively inhibits cytokine-stimulated T cell induced production of TNF-alpha by monocytes” (Mathilda and Terence Kennedy Institute of Rheumatology Trust, priority 1999, dated 2008)

Tested on: TNFα production in osteoarthritis (OA) synovial cultures
Test: TNFα production in osteoarthritis (OA) synovial cultures
Assay type: cell-based, Human
Details: 48 h
Experimental: Osteoarthritis (OA) mononuclear cells were obtained from synovial tissue specimens provided by the Rheumatology Clinic, Charing Cross Hospital, London, UK. As in the case of RA cells (above), OA synovial tissue was teased into small pieces and digested in medium containing 0.15 mg/ml DNase type 1 (Sigma, UK) and 5 mg/ml collagenase (Roche, UK) for 1 to 2 hours at 37° C. After passing cells through nylon mesh to exclude cell debris, cells were washed and resuspended in RPMI medium (BioWhittaker, Verviers, Belgium) (containing 10% heat-inactivated FCS) at a density of 1×10^6 cells/ml and used immediately.
Reagents for the TNFα ELISA were provided by Dr. W. Buurman (Rijks Universiteit Limburg, Maastricht, Netherlands). The ELISA was performed using immobilized anti-TNFα mAb 61E71. and developed using a rabbit anti-TNFα polyclonal antibody. An alternative ELISA for TNFα is commercially available from Pharmingen. The rabbit polyclonal antibody was detected using a peroxidase-conjugated goat anti-rabbit IgG (H+L) (Jackson Immunoresearch Laboratories Inc., Westgrove, PE, USA) followed by an appropriate substrate. The sensitivity range of the assay was 1.6 to 5000 pg/ml.
The effect of the PI3 kinase inhibitor, LY294002, was studied on TNFα production in osteoarthritis (OA) synovial cultures. OA synovial joint cultures were cultured for 48 hours in the presence of increasing concentrations of the PI3 kinase inhibitor, LY294002. Culture supernatants were then harvested and assayed for TNFα (pg/ml) by ELISA.

O=c1cc(N2CCOCC2)oc2c(-c3ccccc3)cccc12 [LY294002]
TNFα production (culture OA 1833, LY 294002 0.005 μM, 0.0 μM: 224 ± 15): 236 ± 11 pg/mL
TNFα production (culture OA 1833, LY 294002 0.05 μM, 0.0 μM: 224 ± 15): 235 ± 22 pg/mL
TNFα production (culture OA 1833, LY 294002 0.5 μM, 0.0 μM: 224 ± 15): 233 ± 28 pg/mL
TNFα production (culture OA 1833, LY 294002 5.0 μM, 0.0 μM: 224 ± 15): 202 ± 15 pg/mL
TNFα production (culture OA 1833, LY 294002 50.0 μM, 0.0 μM: 224 ± 15): 204 ± 5 pg/mL
TNFα production (culture OA 1840, LY 294002 0.005 μM, 0.0 μM: 635 ± 19): 612 ± 13 pg/mL
TNFα production (culture OA 1840, LY 294002 0.05 μM, 0.0 μM: 635 ± 19): 642 ± 32 pg/mL
TNFα production (culture OA 1840, LY 294002 0.5 μM, 0.0 μM: 635 ± 19): 597 ± 38 pg/mL
TNFα production (culture OA 1840, LY 294002 5.0 μM, 0.0 μM: 635 ± 19): 651 ± 50 pg/mL
TNFα production (culture OA 1840, LY 294002 50.0 μM, 0.0 μM: 635 ± 19): 600 ± 31 pg/mL
TNFα production (culture OA 1851, LY 294002 0.005 μM, 0.0 μM: 227 ± 19): 236 ± 13 pg/mL
TNFα production (culture OA 1851, LY 294002 0.05 μM, 0.0 μM: 227 ± 19): 250 ± 12 pg/mL
TNFα production (culture OA 1851, LY 294002 0.5 μM, 0.0 μM: 227 ± 19): 237 ± 63 pg/mL
TNFα production (culture OA 1851, LY 294002 5.0 μM, 0.0 μM: 227 ± 19): 233 ± 15 pg/mL
TNFα production (culture OA 1851, LY 294002 50.0 μM, 0.0 μM: 227 ± 19): 246 ± 31 pg/mL
TNFα production (culture OA 1861, LY 294002 0.005 μM, 0.0 μM: 155 ± 42): 141 ± 33 pg/mL
TNFα production (culture OA 1861, LY 294002 0.05 μM, 0.0 μM: 155 ± 42): 127 ± 5 pg/mL
TNFα production (culture OA 1861, LY 294002 0.5 μM, 0.0 μM: 155 ± 42): 145 ± 29 pg/mL
TNFα production (culture OA 1861, LY 294002 5.0 μM, 0.0 μM: 155 ± 42): 131 ± 44 pg/mL
TNFα production (culture OA 1861, LY 294002 50.0 μM, 0.0 μM: 155 ± 42): 215 ± 9 pg/mL
TNFα production (culture OA 1862, LY 294002 0.005 μM, 0.0 μM: 141 ± 35): 166 ± 31 pg/mL
TNFα production (culture OA 1862, LY 294002 0.05 μM, 0.0 μM: 141 ± 35): 171 ± 55 pg/mL
TNFα production (culture OA 1862, LY 294002 0.5 μM, 0.0 μM: 141 ± 35): 185 ± 7 pg/mL
TNFα production (culture OA 1862, LY 294002 5.0 μM, 0.0 μM: 141 ± 35): 226 ± 100 pg/mL
TNFα production (culture OA 1862, LY 294002 50.0 μM, 0.0 μM: 141 ± 35): 205 ± 19 pg/mL
effect on TNFα production in cultures of OA synovial tissue (varying concentrations, five different samples): no significant effect
